Measured values from ChEMBL document CHEMBL2375325, “Anti-neuroinflammatory properties of synthetic cryptolepine in human neuroblastoma cells: possible involvement of NF-κB and p38 MAPK inhibition” (Eur J Med Chem, 2013).
Active and inactive are the calls of the source. No cut-off for these calls is given here.

Columns and labels:
[1] = biological target: T1, MAP kinase p38 (Homo sapiens) (UniProt O15264+Q15759+Q16539+P53778); experiment: Inhibition of p38 MAPK in human SK-N-SH cells assessed as inhibition of IL1beta-induced MAPKAPK2 phosphorylation preincubated for 30 mins prior to IL1beta-stimulation measured after 1 hr by Western blotting analysis; format: cell-based
[2] = biological target: T1, MAP kinase p38 (Homo sapiens); experiment: Inhibition of IL1beta-induced p38 MAPK phosphorylation in human SK-N-SH cells at 10 to 20 uM preincubated for 30 mins prior to IL1beta-stimulation measured after 1 hr by Western blotting analysis; format: cell-based
[3] = tested on: SK-N-SH; experiment: Inhibition of IL1beta-induced IkappaB phosphorylation in human SK-N-SH cells at 2.5 to 20 uM after 15 mins by ELISA; format: cell-based
[4] = biological target: Transcription factor p65 (Homo sapiens) (UniProt Q04206); experiment: Inhibition of IL1beta-induced NFkappaB p65 nuclear translocation in human SK-N-SH cells after 15 mins by ELISA; format: cell-based
Chain of Transcription factor p65 (Homo sapiens) (Q04206 whole entry): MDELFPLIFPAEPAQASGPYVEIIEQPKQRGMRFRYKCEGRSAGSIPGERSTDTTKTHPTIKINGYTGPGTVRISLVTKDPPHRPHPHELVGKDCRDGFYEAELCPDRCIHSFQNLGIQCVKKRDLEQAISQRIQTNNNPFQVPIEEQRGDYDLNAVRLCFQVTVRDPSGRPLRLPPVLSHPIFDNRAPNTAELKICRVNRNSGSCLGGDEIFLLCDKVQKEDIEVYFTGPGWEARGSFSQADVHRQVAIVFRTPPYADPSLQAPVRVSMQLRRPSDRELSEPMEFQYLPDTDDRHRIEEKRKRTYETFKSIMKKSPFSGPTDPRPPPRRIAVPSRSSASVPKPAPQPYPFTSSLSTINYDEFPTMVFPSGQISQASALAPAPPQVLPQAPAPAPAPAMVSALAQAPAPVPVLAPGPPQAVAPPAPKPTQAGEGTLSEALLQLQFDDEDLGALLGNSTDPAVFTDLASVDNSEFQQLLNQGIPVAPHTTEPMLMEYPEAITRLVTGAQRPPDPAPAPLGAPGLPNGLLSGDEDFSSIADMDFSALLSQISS

[5] = tested on: SK-N-SH; experiment: Inhibition of microsomal PGES-1 gene expression in IL1beta-stimulated human SK-N-SH cells at 10 to 20 uM preincubated for 30 mins prior to IL1beta-stimulation measured after 4 hrs by qPCR analysis; format: functional, cell-based
[6] = tested on: SK-N-SH; experiment: Inhibition of microsomal PGES-1 gene expression in IL1beta-stimulated human SK-N-SH cells at 5 uM preincubated for 30 mins prior to IL1beta-stimulation measured after 4 hrs by qPCR analysis; format: functional, cell-based
[7] = tested on: SK-N-SH; experiment: Inhibition of microsomal PGES-1 gene expression in IL1beta-stimulated human SK-N-SH cells at 2.5 uM preincubated for 30 mins prior to IL1beta-stimulation measured after 4 hrs by qPCR analysis; format: functional, cell-based
[8] = tested on: SK-N-SH; experiment: Inhibition of microsomal PGES-1 protein expression in IL1beta-stimulated human SK-N-SH cells at 5 uM after 24 hrs by Western blotting analysis; format: functional, cell-based
[9] = tested on: SK-N-SH; experiment: Inhibition of microsomal PGES-1 protein expression in IL1beta-stimulated human SK-N-SH cells at 2.5 uM after 24 hrs by Western blotting analysis; format: functional, cell-based
[10] = tested on: SK-N-SH; experiment: Inhibition of COX2 gene expression in IL1beta-stimulated human SK-N-SH cells at 10 to 20 uM preincubated for 30 mins prior to IL1beta-stimulation measured after 4 hrs by qPCR analysis; format: functional, cell-based
[11] = tested on: SK-N-SH; experiment: Inhibition of COX2 protein expression in IL1beta-stimulated human SK-N-SH cells at 5 to 20 uM after 24 hrs by Western blotting analysis; format: functional, cell-based
[12] = tested on: SK-N-SH; experiment: Inhibition of COX2 protein expression in IL1beta-stimulated human SK-N-SH cells at 2.5 uM after 24 hrs by Western blotting analysis relative to IL1beta-treated control; format: functional, cell-based
[13] = tested on: SK-N-SH; experiment: Cytotoxicity against human SK-N-SH cells after 24 hrs by ATP assay; format: cell-based
[14] = tested on: SK-N-SH; experiment: Antiinflammatory activity against human SK-N-SH cells assessed as inhibition of IL1beta-induced IL6 production at 2.5 to 20 uM preincubated for 30 mins prior to IL1beta-stimulation measured after 24 hrs by ELISA; format: functional, cell-based
[15] = tested on: SK-N-SH; experiment: Antiinflammatory activity against human SK-N-SH cells assessed as inhibition of IL1beta-induced TNFalpha production at 2.5 to 20 uM preincubated for 30 mins prior to IL1beta-stimulation measured after 24 hrs by ELISA; format: functional, cell-based
[16] = tested on: SK-N-SH; experiment: Antiinflammatory activity against human SK-N-SH cells assessed as inhibition of IL1beta-induced PGE2 production preincubated for 30 mins prior to IL1beta-stimulation measured after 24 hrs by enzyme immunoassay; format: functional, cell-based
[17] = tested on: SK-N-SH; experiment: Inhibition of microsomal PGES-1 protein expression in IL1beta-stimulated human SK-N-SH cells at 10 to 20 uM after 24 hrs by Western blotting analysis; format: functional, cell-based

## C[n+]1c2ccccc2cc2[n-]c3ccccc3c21.Cl [CRYPTOLEPINE HYDROCHLORIDE]
[1]
  inhibition: Dose-dependent effect
[2]
  inhibition: Active
[3]
  inhibition: inactive
[4]
  inhibition: Dose-dependent effect
[5]
  inhibition: Active
[6]
  inhibition: Active
[7]
  inhibition: inactive
[8]
  inhibition: inactive
[9]
  inhibition: inactive
[10]
  inhibition: Active
[11]
  inhibition: Active
[12]
  inhibition: inactive
[13]
  Activity: Non-toxic
[14]
  Activity: Active
[15]
  Activity: Active
[16]
  Activity: Dose-dependent effect
[17]
  inhibition: Active
